Tests used:
[1] = test system: ECHORC (Watergrass (Calif.)); assay: Preemergence weed control under flooded paddy conditions; type: in vivo, Echinochloa oryzoides; conditions: rated 3-4 weeks after treatment
Outline: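 Seeds or propagules sown in silt loam kept flooded 1.5-3 cm; compounds in 50/50 acetone/water pipetted into flood water at about 0.0313 to 0.500 kg/ha. Greenhouse; visual 0-9 rating versus untreated control 3-4 weeks after treatment.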

[2] = test system: GALAP (Galium); assay: Postemergence herbicidal evaluation; type: in vivo, Galium aparine; conditions: postemergence
Outline: (§1)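 Two-week seedlings sprayed postemergence at 40 psi; formulation: 1:1 acetone/water, 0.5% TWEEN 20; application ≈0.0156–0.500 kg/ha. Greenhouse grow-out, then 0–9 visual scoring at 4–5 weeks.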

[3] = test system: GLXMAW (Soybean, Williams); assay: Postemergence herbicidal evaluation; type: in vivo, Glycine max, (L.) Merr. cv Williams; conditions: postemergence
Outline: as §1

[4] = test system: GALAP (Galium); assay: Preemergence herbicidal evaluation; type: in vivo, Galium aparine; conditions: rated 4-5 weeks after treatment, rating scale 0-9
Outline: (§2)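 Rating at 4–5 wk post-spray on a 0–9 visual scale vs control. Application: aqueous acetone, ~0.0156–0.500 kg/ha, to soil surface after seeding, preemergence.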

[5] = test system: SETVI (Foxtail, Green); assay: Preemergence herbicidal evaluation; type: in vivo, Setaria viridis; conditions: rated 4-5 weeks after treatment, rating scale 0-9
Outline: as §2

[6] = test system: SAGPY (Arrowhead (Pygmaea)); assay: Preemergence weed control under flooded paddy conditions; type: in vivo, Sagittaria pygmaea; conditions: rated 3-4 weeks after treatment
Outline: (§3)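 First, seeds or propagules go into the top 0.5 cm of silt loam; next, water is held 1.5 to 3 cm over the soil; then compound (50/50 acetone/water) is pipetted into it at about 0.0313 to 0.500 kg/ha; finally plants are rated visually 0-9 after three to four weeks.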

[7] = test system: MOOVA (Monochoria); assay: as above; type: in vivo, Monochoria vaginalis; conditions: rated 3-4 weeks after treatment
Outline: as §3

[8] = test system: AMBEL (Ragweed, Common); assay: Postemergence herbicidal evaluation; type: in vivo, Ambrosia artemisifolia; conditions: postemergence
Outline: as §1

[9] = test system: CASOB (Sicklepod); assay: Postemergence herbicidal evaluation; type: in vivo, Cassia obtusifolia; conditions: postemergence
Outline: as §1

[10] = test system: TRZAWR (Wheat, Winter, cv Riband); assay: Postemergence herbicidal evaluation; type: in vivo, Triticum aestivum; conditions: postemergence
Outline: as §1

[11] = test system: ORYSAT (Rice, Tebonnet); assay: Preemergence herbicidal evaluation; type: in vivo, Oryza sativa, (L.) Tebonnet; conditions: rated 4-5 weeks after treatment, rating scale 0-9
Outline: as §2

[12] = test system: CYPSE (Flatsedge); assay: Preemergence weed control under flooded paddy conditions; type: in vivo, Cyperus serotinus; conditions: rated 3-4 weeks after treatment
Outline: as §3

## Cn1c(C(F)(F)F)cc(=O)n(-c2cc(N=C3SCC(=O)N3Cc3ccc(Br)cc3)c(Cl)cc2F)c1=O [Compound 148, 3-{5-{[3-(p-Bromobenzyl)-4-oxo-2-thiazolidinyl-idene]amino}-4-chloro-2-fluorophenyl}-1-methyl-6-(trifluoromethyl)-2,4(1H,3H)-pyrimidinedione]
[1]; 0.0313 kg/ha
  herbicidal effect rating, ECHORC: 6.0
[1]; 0.0625 kg/ha
  herbicidal effect rating, ECHORC: 7.0
[1]; 0.1250 kg/ha
  herbicidal effect rating, ECHORC: 9.0
[1]; 0.2500 kg/ha
  herbicidal effect rating, ECHORC: 9.0
[2]; rate 0.0156 kg/ha
  herbicidal rating GALAP: 2.0
[2]; rate 0.0313 kg/ha
  herbicidal rating GALAP: 2.0
[2]; rate 0.0625 kg/ha
  herbicidal rating GALAP: 2.0
[3]; rate 0.0156 kg/ha
  herbicidal rating GLXMAW: 4.5
[3]; rate 0.0313 kg/ha
  herbicidal rating GLXMAW: 5.0
[3]; rate 0.0625 kg/ha
  herbicidal rating GLXMAW: 6.5
[4]; rate 0.0313 kg/ha
  Preemergence herbicidal rating GALAP: 0.0
[4]; rate 0.0625 kg/ha
  Preemergence herbicidal rating GALAP: 0.0
[4]; rate 0.1250 kg/ha
  Preemergence herbicidal rating GALAP: 0.0
[4]; rate 0.2500 kg/ha
  Preemergence herbicidal rating GALAP: 0.0
[5]; rate 0.0313 kg/ha
  Preemergence herbicidal rating SETVI: 1.0
[5]; rate 0.0625 kg/ha
  Preemergence herbicidal rating SETVI: 0.0
[5]; rate 0.1250 kg/ha
  Preemergence herbicidal rating SETVI: 0.0
[5]; rate 0.2500 kg/ha
  Preemergence herbicidal rating SETVI: 5.0
[6]; 0.0313 kg/ha
  herbicidal effect rating, SAGPY: 0.0
[6]; 0.0625 kg/ha
  herbicidal effect rating, SAGPY: 3.0
[6]; 0.1250 kg/ha
  herbicidal effect rating, SAGPY: 4.0
[6]; 0.2500 kg/ha
  herbicidal effect rating, SAGPY: 4.0
[7]; 0.0313 kg/ha
  herbicidal effect rating, MOOVA: 7.0
[7]; 0.0625 kg/ha
  herbicidal effect rating, MOOVA: 7.0
[7]; 0.1250 kg/ha
  herbicidal effect rating, MOOVA: 9.0
[7]; 0.2500 kg/ha
  herbicidal effect rating, MOOVA: 9.0
[8]; rate 0.0156 kg/ha
  herbicidal rating AMBEL: 9.0
[8]; rate 0.0313 kg/ha
  herbicidal rating AMBEL: 7.0
[8]; rate 0.0625 kg/ha
  herbicidal rating AMBEL: 9.0
[9]; rate 0.0156 kg/ha
  herbicidal rating CASOB: 3.0
[9]; rate 0.0313 kg/ha
  herbicidal rating CASOB: 3.0
[9]; rate 0.0625 kg/ha
  herbicidal rating CASOB: 3.0
[10]; rate 0.0156 kg/ha
  herbicidal rating TRZAWR: 2.5
[10]; rate 0.0313 kg/ha
  herbicidal rating TRZAWR: 3.0
[10]; rate 0.0625 kg/ha
  herbicidal rating TRZAWR: 4.0
[11]; rate 0.0313 kg/ha
  Preemergence herbicidal rating ORYSAT: 0.0
[11]; rate 0.0625 kg/ha
  Preemergence herbicidal rating ORYSAT: 0.0
[11]; rate 0.1250 kg/ha
  Preemergence herbicidal rating ORYSAT: 0.0
[11]; rate 0.2500 kg/ha
  Preemergence herbicidal rating ORYSAT: 0.0
[12]; 0.0313 kg/ha
  herbicidal effect rating, CYPSE: 0.0
[12]; 0.1250 kg/ha
  herbicidal effect rating, CYPSE: 0.0
[12]; 0.2500 kg/ha
  herbicidal effect rating, CYPSE: 5.0

## Cn1c(C(F)(F)F)cc(=O)n(-c2cc(N=C3SCC(=O)N3C3CC3)c(Cl)cc2F)c1=O [Compound 152, 3-{4-Chloro-5-[(3-cyclopropyl-4-oxo-2-thiazolidinylidene)amino]-2-fluorophenyl}-1-methyl-6-(trifluoromethyl)-2,4(1H,3H)-pyrimidinedione]
[1]; 0.0625 kg/ha
  herbicidal effect rating, ECHORC: 0.0
[1]; 0.1250 kg/ha
  herbicidal effect rating, ECHORC: 0.0
[1]; 0.2500 kg/ha
  herbicidal effect rating, ECHORC: 0.0
[2]; rate 0.0156 kg/ha
  herbicidal rating GALAP: 0.0
[2]; rate 0.0313 kg/ha
  herbicidal rating GALAP: 0.0
[2]; rate 0.0625 kg/ha
  herbicidal rating GALAP: 2.0
[3]; rate 0.0156 kg/ha
  herbicidal rating GLXMAW: 4.0
[3]; rate 0.0313 kg/ha
  herbicidal rating GLXMAW: 4.5
[3]; rate 0.0625 kg/ha
  herbicidal rating GLXMAW: 6.0
[4]; rate 0.0313 kg/ha
  Preemergence herbicidal rating GALAP: 0.0
[4]; rate 0.0625 kg/ha
  Preemergence herbicidal rating GALAP: 0.0
[4]; rate 0.1250 kg/ha
  Preemergence herbicidal rating GALAP: 1.0
[4]; rate 0.2500 kg/ha
  Preemergence herbicidal rating GALAP: 6.0
[5]; rate 0.0313 kg/ha
  Preemergence herbicidal rating SETVI: 0.0
[5]; rate 0.0625 kg/ha
  Preemergence herbicidal rating SETVI: 1.0
[5]; rate 0.1250 kg/ha
  Preemergence herbicidal rating SETVI: 1.0
[5]; rate 0.2500 kg/ha
  Preemergence herbicidal rating SETVI: 9.0
[6]; 0.0625 kg/ha
  herbicidal effect rating, SAGPY: 0.0
[6]; 0.1250 kg/ha
  herbicidal effect rating, SAGPY: 0.0
[6]; 0.2500 kg/ha
  herbicidal effect rating, SAGPY: 0.0
[7]; 0.0625 kg/ha
  herbicidal effect rating, MOOVA: 3.0
[7]; 0.1250 kg/ha
  herbicidal effect rating, MOOVA: 3.0
[7]; 0.2500 kg/ha
  herbicidal effect rating, MOOVA: 3.0
[8]; rate 0.0156 kg/ha
  herbicidal rating AMBEL: 2.0
[8]; rate 0.0313 kg/ha
  herbicidal rating AMBEL: 4.0
[8]; rate 0.0625 kg/ha
  herbicidal rating AMBEL: 9.0
[9]; rate 0.0156 kg/ha
  herbicidal rating CASOB: 0.0
[9]; rate 0.0313 kg/ha
  herbicidal rating CASOB: 0.0
[9]; rate 0.0625 kg/ha
  herbicidal rating CASOB: 3.0
[10]; rate 0.0156 kg/ha
  herbicidal rating TRZAWR: 3.0
[10]; rate 0.0313 kg/ha
  herbicidal rating TRZAWR: 3.5
[10]; rate 0.0625 kg/ha
  herbicidal rating TRZAWR: 4.0
[11]; rate 0.0313 kg/ha
  Preemergence herbicidal rating ORYSAT: 0.0
[11]; rate 0.0625 kg/ha
  Preemergence herbicidal rating ORYSAT: 1.0
[11]; rate 0.1250 kg/ha
  Preemergence herbicidal rating ORYSAT: 1.0
[11]; rate 0.2500 kg/ha
  Preemergence herbicidal rating ORYSAT: 1.0
[12]; 0.0625 kg/ha
  herbicidal effect rating, CYPSE: 0.0
[12]; 0.1250 kg/ha
  herbicidal effect rating, CYPSE: 0.0
[12]; 0.2500 kg/ha
  herbicidal effect rating, CYPSE: 0.0

— US20020137929A1, “1 - (3-heterocyclylphenyl) isothiourea, -isourea, -guanidine and -amidine herbicidal agents” (Intellectual Property Department, BASF Aktiengesellschaft, priority 1998, published 2002)
